Test results published in PubChem BioAssay (NCI).
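Method: 48-hour compound exposure of cells in 96-well plates, five concentrations, linear interpolation of endpoints. The concentration for full growth arrest is given as TGI.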

Legend:
Assay in all cases: NCI tumour cell line growth inhibition, 48 h
U251 CNS = system: U251 CNS
A498 renal = system: A498 renal
RPMI-8226 leukemia = system: RPMI-8226 leukemia
SK-MEL-2 melanoma = system: SK-MEL-2 melanoma
SF-268 CNS = system: SF-268 CNS
NCI-H522 lung = system: NCI-H522 lung
HOP-92 NSCLC = system: HOP-92 NSCLC
OVCAR-8 ovarian = system: OVCAR-8 ovarian
OVCAR-3 ovarian = system: OVCAR-3 ovarian
MOLT-4 leukemia = system: MOLT-4 leukemia
UACC-62 melanoma = system: UACC-62 melanoma
LOX IMVI melanoma = system: LOX IMVI melanoma
NCI/ADR-RES ovarian = system: NCI/ADR-RES ovarian
KM12 colon = system: KM12 colon
NCI-H23 lung = system: NCI-H23 lung
K-562 leukemia = system: K-562 leukemia
COLO 205 colon = system: COLO 205 colon
KM20L2 colon = system: KM20L2 colon
NCI-H460 lung = system: NCI-H460 lung
SNB-75 CNS = system: SNB-75 CNS
DLD-1 colon = system: DLD-1 colon
CCRF-CEM leukemia = system: CCRF-CEM leukemia
EKVX NSCLC = system: EKVX NSCLC
HT29 colon = system: HT29 colon
MALME-3M melanoma = system: MALME-3M melanoma
SNB-19 CNS = system: SNB-19 CNS
M19-MEL melanoma = system: M19-MEL melanoma
UACC-257 melanoma = system: UACC-257 melanoma
MCF7 breast = system: MCF7 breast
SNB-78 CNS = system: SNB-78 CNS
DMS 273 small cell lung = system: DMS 273 small cell lung
HCT-15 colon = system: HCT-15 colon
SN12C renal = system: SN12C renal
SK-MEL-28 melanoma = system: SK-MEL-28 melanoma
OVCAR-4 ovarian = system: OVCAR-4 ovarian
CAKI-1 renal = system: CAKI-1 renal
SF-539 CNS = system: SF-539 CNS
XF 498 CNS = system: XF 498 CNS
OVCAR-5 ovarian = system: OVCAR-5 ovarian
SK-MEL-5 melanoma = system: SK-MEL-5 melanoma
SN12K1 renal = system: SN12K1 renal
HOP-62 NSCLC = system: HOP-62 NSCLC
P388/ADR leukemia = system: P388/ADR leukemia
IGROV1 ovarian = system: IGROV1 ovarian
HCC-2998 colon = system: HCC-2998 colon
RXF 393 renal = system: RXF 393 renal
HOP-18 NSCLC = system: HOP-18 NSCLC
DMS 114 small cell lung = system: DMS 114 small cell lung
SW-620 colon = system: SW-620 colon
HL-60(TB) leukemia = system: HL-60(TB) leukemia
A549 NSCLC = system: A549 NSCLC
UO-31 renal = system: UO-31 renal
SK-OV-3 ovarian = system: SK-OV-3 ovarian
HCT-116 colon = system: HCT-116 colon
P388 leukemia = system: P388 leukemia
NCI-H226 lung = system: NCI-H226 lung
SF-295 CNS = system: SF-295 CNS
SR leukemia = system: SR leukemia
LXFL 529 NSCLC = system: LXFL 529 NSCLC
TK-10 renal = system: TK-10 renal
ACHN renal = system: ACHN renal
RXF-631 renal = system: RXF-631 renal
M14 melanoma = system: M14 melanoma
786-0 renal = system: 786-0 renal

## O=NN(CCCl)C(=O)Nc1ccc(Cl)c(Cl)c1
U251 CNS
  TGI: > 100 µM
A498 renal
  TGI: > 100 µM
RPMI-8226 leukemia
  TGI: > 100 µM
SK-MEL-2 melanoma
  TGI: > 100 µM
SF-268 CNS
  TGI: > 100 µM
NCI-H522 lung
  TGI: > 89.5 µM
HOP-92 NSCLC
  TGI: 97.8 µM
OVCAR-8 ovarian
  TGI: > 100 µM
OVCAR-3 ovarian
  TGI: > 100 µM
MOLT-4 leukemia
  TGI: > 100 µM
UACC-62 melanoma
  TGI: > 100 µM
LOX IMVI melanoma
  TGI: > 100 µM
NCI/ADR-RES ovarian
  TGI: > 100 µM
KM12 colon
  TGI: > 100 µM
NCI-H23 lung
  TGI: > 100 µM
K-562 leukemia
  TGI: > 100 µM
COLO 205 colon
  TGI: > 100 µM
KM20L2 colon
  TGI: > 69.3 µM
NCI-H460 lung
  TGI: > 100 µM
SNB-75 CNS
  TGI: > 100 µM
DLD-1 colon
  TGI: > 100 µM
CCRF-CEM leukemia
  TGI: > 100 µM
EKVX NSCLC
  TGI: > 100 µM
HT29 colon
  TGI: > 100 µM
MALME-3M melanoma
  TGI: > 100 µM
SNB-19 CNS
  TGI: > 100 µM
M19-MEL melanoma
  TGI: > 100 µM
UACC-257 melanoma
  TGI: > 100 µM
MCF7 breast
  TGI: > 100 µM
SNB-78 CNS
  TGI: > 100 µM
DMS 273 small cell lung
  TGI: > 100 µM
HCT-15 colon
  TGI: > 100 µM
SN12C renal
  TGI: > 100 µM
SK-MEL-28 melanoma
  TGI: > 100 µM
OVCAR-4 ovarian
  TGI: > 100 µM
CAKI-1 renal
  TGI: > 100 µM
SF-539 CNS
  TGI: > 100 µM
XF 498 CNS
  TGI: 99.7 µM
OVCAR-5 ovarian
  TGI: > 100 µM
SK-MEL-5 melanoma
  TGI: > 100 µM
SN12K1 renal
  TGI: > 100 µM
HOP-62 NSCLC
  TGI: > 100 µM
P388/ADR leukemia
  TGI: > 100 µM
IGROV1 ovarian
  TGI: > 100 µM
HCC-2998 colon
  TGI: > 100 µM
RXF 393 renal
  TGI: > 100 µM
HOP-18 NSCLC
  TGI: > 26.2 µM
DMS 114 small cell lung
  TGI: > 100 µM
SW-620 colon
  TGI: > 100 µM
HL-60(TB) leukemia
  TGI: > 100 µM
A549 NSCLC
  TGI: > 100 µM
UO-31 renal
  TGI: 99.3 µM
SK-OV-3 ovarian
  TGI: > 100 µM
HCT-116 colon
  TGI: > 100 µM
P388 leukemia
  TGI: > 100 µM
NCI-H226 lung
  TGI: > 100 µM
SF-295 CNS
  TGI: > 100 µM

## COC[C@@H]1Cc2cc(OC)c3c(c2[C@H](c2ccc(OC)c(OC)c2)[C@H]1COC)OCO3
U251 CNS
  TGI: > 100 µM
A498 renal
  TGI: > 100 µM
SK-MEL-2 melanoma
  TGI: > 100 µM
SF-268 CNS
  TGI: > 100 µM
SR leukemia
  TGI: > 100 µM
NCI-H522 lung
  TGI: > 100 µM
HOP-92 NSCLC
  TGI: > 100 µM
OVCAR-8 ovarian
  TGI: > 100 µM
OVCAR-3 ovarian
  TGI: > 100 µM
MOLT-4 leukemia
  TGI: > 100 µM
UACC-62 melanoma
  TGI: > 100 µM
LOX IMVI melanoma
  TGI: > 100 µM
LXFL 529 NSCLC
  TGI: > 100 µM
KM12 colon
  TGI: > 100 µM
NCI-H23 lung
  TGI: > 100 µM
TK-10 renal
  TGI: > 100 µM
COLO 205 colon
  TGI: > 100 µM
KM20L2 colon
  TGI: > 100 µM
NCI-H460 lung
  TGI: > 100 µM
SNB-75 CNS
  TGI: 83.2 µM
DLD-1 colon
  TGI: > 100 µM
CCRF-CEM leukemia
  TGI: > 100 µM
EKVX NSCLC
  TGI: > 100 µM
HT29 colon
  TGI: > 100 µM
MALME-3M melanoma
  TGI: > 100 µM
SNB-19 CNS
  TGI: > 100 µM
ACHN renal
  TGI: > 100 µM
M19-MEL melanoma
  TGI: > 100 µM
UACC-257 melanoma
  TGI: > 100 µM
RXF-631 renal
  TGI: > 100 µM
DMS 273 small cell lung
  TGI: > 100 µM
HCT-15 colon
  TGI: > 100 µM
SN12C renal
  TGI: > 100 µM
SK-MEL-28 melanoma
  TGI: > 100 µM
SF-539 CNS
  TGI: > 100 µM
XF 498 CNS
  TGI: > 100 µM
OVCAR-5 ovarian
  TGI: > 100 µM
IGROV1 ovarian
  TGI: > 100 µM
HCC-2998 colon
  TGI: > 100 µM
RXF 393 renal
  TGI: > 100 µM
HOP-18 NSCLC
  TGI: > 100 µM
DMS 114 small cell lung
  TGI: > 100 µM
SW-620 colon
  TGI: > 100 µM
HL-60(TB) leukemia
  TGI: > 100 µM
A549 NSCLC
  TGI: > 100 µM
UO-31 renal
  TGI: > 100 µM
SK-OV-3 ovarian
  TGI: > 100 µM
HCT-116 colon
  TGI: > 100 µM
SF-295 CNS
  TGI: > 100 µM
M14 melanoma
  TGI: > 100 µM

## CN(C)CCCNC(=O)c1cccc2nc3ccccc3nc12
U251 CNS
  TGI: > 73.4 µM
A498 renal
  TGI: 39.6 µM
RPMI-8226 leukemia
  TGI: > 100 µM
SK-MEL-2 melanoma
  TGI: 29 µM
SF-268 CNS
  TGI: 39.9 µM
SR leukemia
  TGI: > 100 µM
NCI-H522 lung
  TGI: > 100 µM
HOP-92 NSCLC
  TGI: > 78.4 µM
OVCAR-8 ovarian
  TGI: > 82.2 µM
OVCAR-3 ovarian
  TGI: > 59.5 µM
MOLT-4 leukemia
  TGI: > 100 µM
UACC-62 melanoma
  TGI: > 57.8 µM
LOX IMVI melanoma
  TGI: 39.8 µM
LXFL 529 NSCLC
  TGI: > 95.2 µM
KM12 colon
  TGI: 49.9 µM
NCI-H23 lung
  TGI: 33.5 µM
TK-10 renal
  TGI: > 100 µM
K-562 leukemia
  TGI: 60.4 µM
COLO 205 colon
  TGI: > 48.3 µM
KM20L2 colon
  TGI: > 100 µM
786-0 renal
  TGI: > 100 µM
SNB-75 CNS
  TGI: > 100 µM
DLD-1 colon
  TGI: > 100 µM
EKVX NSCLC
  TGI: > 77.4 µM
HT29 colon
  TGI: 36.5 µM
MALME-3M melanoma
  TGI: 19.3 µM
SNB-19 CNS
  TGI: > 100 µM
ACHN renal
  TGI: > 100 µM
M19-MEL melanoma
  TGI: 16.4 µM
UACC-257 melanoma
  TGI: 19.5 µM
SNB-78 CNS
  TGI: > 71.6 µM
RXF-631 renal
  TGI: > 100 µM
DMS 273 small cell lung
  TGI: > 100 µM
HCT-15 colon
  TGI: > 82.4 µM
SN12C renal
  TGI: > 100 µM
SK-MEL-28 melanoma
  TGI: 38.5 µM
OVCAR-4 ovarian
  TGI: 47.2 µM
CAKI-1 renal
  TGI: > 78.2 µM
SF-539 CNS
  TGI: 54.2 µM
XF 498 CNS
  TGI: 2.1 µM
OVCAR-5 ovarian
  TGI: 54.3 µM
SK-MEL-5 melanoma
  TGI: > 100 µM
HOP-62 NSCLC
  TGI: 45.5 µM
IGROV1 ovarian
  TGI: > 82.2 µM
HCC-2998 colon
  TGI: 50.4 µM
RXF 393 renal
  TGI: 34.6 µM
HOP-18 NSCLC
  TGI: > 86.9 µM
DMS 114 small cell lung
  TGI: 30 µM
SW-620 colon
  TGI: > 54.9 µM
A549 NSCLC
  TGI: > 78.7 µM
UO-31 renal
  TGI: > 71 µM
SK-OV-3 ovarian
  TGI: > 100 µM
HCT-116 colon
  TGI: 34.7 µM
NCI-H226 lung
  TGI: 39.1 µM
SF-295 CNS
  TGI: > 55.4 µM
M14 melanoma
  TGI: > 53.3 µM
